Results as given in patent publication US9095565B2, “Methods for treating blood disorders” (Phoenicia Biosciences, Inc., priority 2006, dated 2015).

Tests used:
γ-globin gene = assay: Related study: relative in vitro γ-globin gene induction; assay type: cell-based
Description: (§1) In a related study, the relative luciferase reporter gene induction, γ-globin gene induction, and F cell production was tested for several of the candidate compounds. The relative in vitro γ-globin gene reporter stimulation for the tested compounds was as follows: compound P>M>W=R=Y. The relative in vitro γ-globin gene induction for the tested compounds was as follows: P>R=M>Y>W>. The relative in vitro F-cell production was as follows: W>Y>R>M>P. The relative potency for F-cell production was as follows: R>M>Y>P>W.

γ-globin gene reporter = assay: Related study: relative luciferase reporter gene induction; assay type: cell-based
Description: as §1

[1] = system: Erythroid colonies (BFU-E); assay: Experiment 2: erythroid colonies (BFU-E) cultured from patients with beta thalassemia; assay type: cell-based, human; details: optimal panel of growth factors
Description: (§2) Erythroid burst-forming units (BFU-E) (erythroid progenitors) and colony-forming units granulocyte-macrophage (CFU-GM) (myeloid colonies) were cultured in semi-solid or in two-phase suspension media, with or without hematopoietic growth factors at high levels (e.g., erythropoietin at 3 U/ml) or reduced levels (BFU-E cell proliferation was evaluated by enumeration in colonies developing in the presence of reduced amounts of erythropoietin (0.5 U/ml) rather than 3 U (or 3000 mU)/ml, which is standard for these experimental systems), from cord blood or the peripheral blood of several types of humans. Experiments were carried out on samples derived from 1) β-thalassemia patients who expressed variable levels of fetal globin at baseline (and in untreated control cultures) and represent a variety of potential individual responses, 2) from normal umbilical cord blood samples, which express 40-50% fetal globin at baseline (and in untreated control cultures), 3) from CD34+ cells isolated from normal adult peripheral blood, which expressed low levels of fetal globin in untreated control cultures and at baseline; and 4) from peripheral blood of patients with sickle cell disease who were receiving treatment with hydroxyurea. These biological samples provide a range of potential difficulty in stimulating fetal globin expression in human patients.
Erythroid colonies were cultured from patients with beta thalassemia, either without any test compounds (Control), only an optimal panel of hematopoietic growth factors, or with one of the test compounds M, P, T, 2-methyl-1-benzofuran-4-carboxylic acid, V, W, X, Y, AK, AC, or AI. […] Colony numbers were increased above the control cultures (% BFU-E/Control) by anywhere from 25% to 230%. Each of the listed test compounds was tested in at least 5 different patients' blood and the differences were statistically significant.

[2] = Pharmacokinetic profiles in anemic juvenile baboons (plasma levels by HPLC-MS); assay type: in vivo; details: 10 mg/kg oral, baboon
Description: Juvenile baboons were catheterized with venous and arterial catheters, and were phlebotomized a set amount of blood daily to maintain anemia with a hemoglobin level of 7.0-7.5 g/dl, from a baseline normal hemoglobin level of (12-13 g/dl). Normal saline was infused to replace the amount of blood withdrawn. This degree of phlebotomy exchanges the blood volume every 10-20 days. Following establishment of the stable level of anemia, a test compound was administered once/day, either intravenously or orally, and blood was withdrawn through the arterial catheter for analysis of globin mRNA or for analysis of the test compound in the plasma by HPLC-MS. Pharmacokinetic profiles were established from the plasma levels and oral bioavailability (comparing area under the curve between IV and oral plasma levels) was determined for the test compounds.

myeloid colonies = assay: Experiment 3: myeloid colonies in cord blood cultured without added growth factors; assay type: cell-based, human; details: no added growth factors
Description: as §2
Control colonies were established in cultures with no added growth factors to support myelopoiesis, in Iscove's Modified Dulbecco's Media (IMDM) methylcellulose media with charcoal-absorbed fetal bovine serum, beta mercaptoethanol, BSA.

γ-globin mRNA = γ-globin mRNA by RT-PCR in erythroid colonies cultured from cord blood; assay type: cell-based, human; details: for Concentration required: increase in fetal globin mRNA, erythroid colonies from cord blood; for No. of Positive responses: positive cultures/cultures tested
Description: γ-globin mRNA was analyzed in control and treated erythroid colonies cultured from cord blood, by RT-PCR.

γ globin promoter = assay: β/γ-globin promoter driven reporter gene assay; assay type: cell-based; details: Table 2
fetal globin mRNA = assay: Fetal globin induction in phlebotomized anemic baboons; assay type: in vivo, baboon
Description: Juvenile baboons were catheterized with venous and arterial catheters, and were phlebotomized a set amount of blood daily to maintain anemia with a hemoglobin level of 7.0-7.5 g/dl, from a baseline normal hemoglobin level of (12-13 g/dl). Normal saline was infused to replace the amount of blood withdrawn. This degree of phlebotomy exchanges the blood volume every 10-20 days.
Fetal globin mRNA was analyzed at baseline anemia before and following administration of test compounds. Globin chain protein synthesis confirmed the mRNA findings.
Following establishment of the stable level of anemia, a test compound was administered once/day, either intravenously or orally, and blood was withdrawn through the arterial catheter for analysis of globin mRNA or for analysis of the test compound in the plasma by HPLC-MS. Pharmacokinetic profiles were established from the plasma levels and oral bioavailability (comparing area under the curve between IV and oral plasma levels) was determined for the test compounds.
In anemic Baboon 5002, baseline fetal globin mRNA, assayed by RNAse protection, was 26% of non-alpha globin. With treatment with compound Y at 5 mg/kg/dose, fetal globin mRNA increased to 48% of non-alpha globin, an 85% increase over the baseline level. Treatment with compound AK at 50 mg/kg induced a 51% fetal globin mRNA increase, a 96% increase over the baseline level. […] The human equivalent dose is 20% of these doses, or 1 mg/kg, 10 mg/kg, or 8 mg/kg respectively. Thus, these 3 compounds are highly suitable for pharmaceutical compositions at doses that human patients can readily tolerate.

BFU-E = BFU-E cultured from cord blood; assay type: cell-based, human
Description: as §2
In a related study, BFU-E cultured from cord blood, was tested with or without compound M, P, R, T, W, Y, Z, AI, F, or 3-(5-chlorothien-3-yl)acrylic acid.

F-cell = assay: Related study: in vitro F cell production; assay type: cell-based
Description: as §1

[3] = system: cells expressing fetal globin (F-cells); assay: Experiment 1: proportion of F-cells in hematopoietic colonies by FACScan; assay type: cell-based, human; details: same low concentrations as for fetal globin mRNA induction
Description: as §2
Hematopoietic colonies were enumerated with or without (+/−) the test compounds, and compared to colonies which developed in the presence of hematopoietic growth factors alone from the same subject (untreated control colonies), and proportions of cells expressing fetal globin (F-cells) were analyzed by FACScan analysis.

[4] = system: fetal globin gene promoter; assay: Example 8: factor occupancy of globin gene promoters in primary erythroid cells; assay type: cell-based
Source text: This is a selective effect on the fetal (gamma globin) gene promoter, without generalized widespread epistatic effects or any effects on the beta globin promoter, as other agents tend to cause. The transcription factor EKLF and the remodeling complex Brg1 and Pol II became bound to the promoter in association with gene activation. In contrast, there were no effects on the beta globin gene promoter. These compounds therefore produce highly specific activating effects solely on the globin gene promoter which would be beneficial to induce for therapy of the beta globin gene disorders, and provide a targeted molecular activity.

[5] = system: Erythroid cells cultured from adult blood; assay: Experiment 4: erythroid cells cultured from adult blood CD34+ cells (cell counts, qRT-PCR, HPLC of hemoglobins); assay type: cell-based, human
Description: Erythroid cells cultured from adult blood are low-HbF expressing and are the most difficult to alter with regard to globin expression. This experiment analyzed erythroid cells cultured from adult blood in the presence or absence of representative test compounds.
Erythroid cells were generated by culturing purified CD34+ cells in Flt-3 ligand, stem cell factor (SCF) and IL-3 for seven days followed by growth in EPO for 14 days. For treatment, cells were cultured as above in a T75 flask then split into multiple flasks on day 8 and treatment with the test compounds was begun. Compound P or other test compounds were diluted from stock solutions with the microliter volumes of stock added to each culture flask for final working concentrations. Cells were enumerated every two days by hemacytometer count. RNA was harvested from 10^6 cells every two days using RNeasy Plus Mini Kit (Qiagen) and qRT-PCR performed using IQ SybrGreen Supermix on an Opticon Monitor instrument (MJ Research). […] Separation of hemoglobins was performed by cation exchange HPLC using a 35×4.6 mm; […] PolyCAT A column (Nest Group) as described previously by Cheryl Rognerud and Ching-Nan Ou, and outlined by the column manufacturer.
QPCR primers were designed using known sequences for α-globin, β-globin, γ-globin, β-actin and B3PD. Primers were designed to span at least one […].

[6] = system: mice transgenic for the micro-LCR-201 gamma-globin gene promoter; assay: γ-globin induction and hematocrit in transgenic mice; assay type: in vivo, mouse; details: IP once/day, 5 days/week, 2 weeks
Description: Transgenic mice containing the human fetal globin gene and a micro-Locus Control Region (LCR) received no treatment (controls) or were treated with test compounds and γ-globin mRNA was analyzed by RT-PCR. Compound W was administered to mice transgenic for the micro-LCR-201 gamma-globin gene promoter, by IP injection once/day for 5 days/week for 2 weeks, and gamma-globin mRNA was assayed by qPCR. Hematocrit was analyzed once per week. A significant difference in expression of human fetal globin mRNA and in hematocrit between Control and compound W-treated mice was found in initial experiments as summarized in Table 4 below.

COc1cc(OC)nc(SC(C(=O)O)C(C)C)n1 (racemic) [Compound Y]
relative in vitro γ-globin gene induction (rank order) (γ-globin gene): P>R=M>Y>W | relative in vitro γ-globin gene reporter stimulation (rank order) (γ-globin gene reporter): P>M>W=R=Y | number of erythroid colonies compared to matched control cultures [1]: increased the number of colonies | initial burst level [2]: does not produce an undesirable high initial burst level | persistence in plasma [2]: greater than 24 hours | production of myeloid colonies compared to untreated control (myeloid colonies): stimulated production of myeloid colonies | Concentration required (γ-globin mRNA): 5 µM | No. of Positive responses (γ-globin mRNA): 1/3 | % γ globin promoter induction (above untreated control) (γ globin promoter): ** (‘**’ indicates a 100%-200% increase) | increase over the baseline level of fetal globin mRNA (fetal globin mRNA; Baboon 5002, 5 mg/kg/dose): 85% | fetal globin mRNA (% of non-alpha globin) (fetal globin mRNA; Baboon 5002, 5 mg/kg/dose, baseline 26%, RNAse protection): 48% | numbers of BFU-E colonies compared to controls (BFU-E): increased numbers of colonies | relative in vitro F-cell production (rank order) (F-cell): W>Y>R>M>P | relative potency for F-cell production (rank order) (F-cell): R>M>Y>P>W | proportion of F-cells above the percentage in untreated controls [3]: significant increases

O=C(O)c1cccc(-c2cc3ccccc3oc2=O)c1 [Compound P]
relative in vitro γ-globin gene induction (rank order) (γ-globin gene): P>R=M>Y>W | relative in vitro γ-globin gene reporter stimulation (rank order) (γ-globin gene reporter): P>M>W=R=Y | number of erythroid colonies compared to matched control cultures [1]: increased the number of colonies | Concentration required (γ-globin mRNA): 20 µM | No. of Positive responses (γ-globin mRNA): 6/6 | EKLF and Brg1 ATPase proteins at the gamma-globin gene promoter [4]: induced recruitment | effects on the beta globin gene promoter [4]: no effects | repressor complex of HDAC3, NCoR at the fetal globin gene promoter [4]: displacement of a repressor complex of HDAC3, NCoR | Cell counts vs cells cultured with erythropoietin alone ([5]; 20 microM): increased | increase in expression of fetal globin (Hemoglobin F protein) vs untreated control ([5]; 100 micromolar, one cycle of erythroid differentiation): 19 fold | production/expression of alpha globin ([5]; different doses): no effect | production of beta globin ([5]; same doses as increases in fetal globin mRNA): reciprocal decrease | % γ globin promoter induction (above untreated control) (γ globin promoter): *** (‘***’ indicates an over 200% increase of γ globin promoter induction over untreated controls) | induction of fetal globin (% of globin expression) (fetal globin mRNA; phlebotomized anemic baboon with no baseline fetal globin): 7% | beta globin expression (fetal globin mRNA; same baboon, baseline 100% beta globin): concommitant reduction | numbers of BFU-E colonies compared to controls (BFU-E): increased numbers of colonies | relative in vitro F-cell production (rank order) (F-cell): W>Y>R>M>P | relative potency for F-cell production (rank order) (F-cell): R>M>Y>P>W | proportion of F-cells above the percentage in untreated controls [3]: significant increases

O=C(O)c1cccc(Cn2cc([N+](=O)[O-])cn2)c1 [Compound W]
relative in vitro γ-globin gene induction (rank order) (γ-globin gene): P>R=M>Y>W | relative in vitro γ-globin gene reporter stimulation (rank order) (γ-globin gene reporter): P>M>W=R=Y | Hematocrit ([6]; untreated 51 +/− 0.45): 57 +/− 3 | γ-globin mRNA/S16 (mean relative units) ([6]; untreated 1508): 3418 mean relative units | number of erythroid colonies compared to matched control cultures [1]: increased the number of colonies | production of myeloid colonies compared to untreated control (myeloid colonies): stimulated production of myeloid colonies | Concentration required (γ-globin mRNA): 40 µM | No. of Positive responses (γ-globin mRNA): 5/6 | % γ globin promoter induction (above untreated control) (γ globin promoter): ** (‘**’ indicates a 100%-200% increase) | numbers of BFU-E colonies compared to controls (BFU-E): increased numbers of colonies | relative in vitro F-cell production (rank order) (F-cell): W>Y>R>M>P | relative potency for F-cell production (rank order) (F-cell): R>M>Y>P>W | proportion of F-cells above the percentage in untreated controls [3]: significant increases
